In PMC4030617 (Biochemistry, 2009):
≈ marks a conversion by molar mass, not a printed value. Where “and” joins values, the source holds several entries; their conditions need not be identical. Identical values can stand only once.

Experiments:
[1] = molecular target: T1, SHV Asn276Asp β-lactamase (Klebsiella pneumoniae, UniProt P0AD64, N270D); test: Direct competition assay against nitrocefin; assay type: biochemical; settings: for increase in Ki for Asn276Asp as compared to SHV-1: Asn276Asp vs SHV-1
[2] = molecular target: T2, SHV-1 β-lactamase (Klebsiella pneumoniae, UniProt P0AD64); assay type: biochemical
[3] = molecular target: T1, SHV Asn276Asp β-lactamase; test: Inactivation kinetics; assay type: biochemical; settings: Asn276Asp vs SHV-1
[4] = molecular target: T1, SHV Asn276Asp β-lactamase; test: Partition ratio; assay type: biochemical; settings: rate of inhibitor hydrolysis, calculated
[5] = system: E. coli DH10B expressing SHV Asn276Gln, -Glu, -Cys; test: microbe, parasite or virus in culture; assay type: cell-based; settings: Escherichia coli
[6] = molecular target: T1, SHV Asn276Asp β-lactamase; test: Steady-state substrate hydrolysis kinetics, Asn276Asp; assay type: biochemical; settings: for Km: PBS pH 7.4, room temperature
[7] = system: E. coli DH10B expressing SHV Asn276Val; test: microbe, parasite or virus in culture; assay type: cell-based; settings: Escherichia coli
[8] = system: E. coli DH10B expressing SHV Asn276Thr; test: microbe, parasite or virus in culture; assay type: cell-based; settings: Escherichia coli
[9] = system: E. coli DH10B expressing SHV Asn276Ser; test: microbe, parasite or virus in culture; assay type: cell-based; settings: Escherichia coli
[10] = system: E. coli DH10B expressing SHV Asn276His; test: microbe, parasite or virus in culture; assay type: cell-based; settings: Escherichia coli
[11] = system: E. coli DH10B expressing SHV Asn276Lys, -Arg, -Tyr, -Phe; test: microbe, parasite or virus in culture; assay type: cell-based; settings: Escherichia coli
[12] = system: E. coli DH10B; test: MIC, lysogeny broth agar dilution, host strain; settings: Escherichia coli
[13] = system: E. coli DH10B expressing SHV Asn276Ala, -Leu, -Ile; test: microbe, parasite or virus in culture; assay type: cell-based; settings: Escherichia coli
[14] = system: E. coli DH10B expressing SHV Asn276Asp; test: microbe, parasite or virus in culture; assay type: cell-based; settings: Escherichia coli
[15] = system: E. coli DH10B expressing SHV Asn276Met; test: microbe, parasite or virus in culture; assay type: cell-based; settings: Escherichia coli
[16] = system: E. coli DH10B expressing SHV Asn276Pro, -Trp; test: microbe, parasite or virus in culture; assay type: cell-based; settings: Escherichia coli
[17] = system: E. coli DH10B expressing SHV-1; test: MIC, agar dilution, strain expressing SHV-1; settings: Escherichia coli
[18] = system: E. coli DH10B expressing SHV Asn276Gly; test: microbe, parasite or virus in culture; assay type: cell-based; settings: Escherichia coli
[19] = system: E. coli DH10B expressing SHV Asn276 variants; test: MIC, agar dilution, all Asn276 variants taken together; settings: for MIC of Asn276 variants compared to SHV-1: all Asn276 variants vs SHV-1, in words
[20] = system: CC1(C)S[C@@H]2[C@H](NC(=O)[C@H](N)c3ccccc3)C(=O)N2[C@H]1C(=O)O; test: purified protein, by the assay type; settings: other: SHV-1, substrate hydrolysis, PBS pH 7.4, room temperature
[21] = system: CC(=O)OCC1=C(C(=O)O)N2C(=O)[C@@H](NC(=O)Cc3cccs3)[C@H]2SC1; test: purified protein, by the assay type; settings: other: SHV-1, substrate hydrolysis, PBS pH 7.4, room temperature
[22] = system: CCN1CCN(C(=O)N[C@@H](C(=O)N[C@@H]2C(=O)N3[C@@H]2SC(C)(C)[C@@H]3C(=O)O)c2ccccc2)C(=O)C1=O; test: purified protein, by the assay type; settings: other: SHV-1, substrate hydrolysis, PBS pH 7.4, room temperature
[23] = system: O=C(Cc1cccs1)N[C@@H]1C(=O)N2C(C(=O)O)=C(/C=C/c3ccc([N+](=O)[O-])cc3[N+](=O)[O-])CS[C@H]12; test: purified protein, by the assay type; settings: other: SHV-1, substrate hydrolysis, PBS pH 7.4, room temperature
[24] = molecular target: T2, SHV-1 β-lactamase; test: biochemical

Molecule | MIC [5] | kcat [6] | Km [6] | MIC [7] | MIC [8] | MIC [9] | MIC [10] | MIC [11] | MIC [12] | MIC [13] | MIC [14] | MIC [15] | MIC [16] | MIC [17] | MIC [18] | other results
O=C(O)[C@H]1/C(=C/CO)O[C@@H]2CC(=O)N21 [clavulanate] |  |  |  |  |  |  |  |  |  |  |  |  |  |  |  | increase in Ki for Asn276Asp as compared to SHV-1 [1]: 5 fold and 5.4 fold; kcat [2]: 0.60 ± 0.17 s⁻¹; increase in KI for Asn276Asp as compared to SHV-1 [3]: 1.6 fold; kcat [4]: 0.75 ± 0.18 s⁻¹
CCN1CCN(C(=O)N[C@@H](C(=O)N[C@@H]2C(=O)N3[C@@H]2SC(C)(C)[C@@H]3C(=O)O)c2ccccc2)C(=O)C1=O [piperacillin] | 64 to 128 µg/mL (≈ 124 to 247 µM) | 976 ± 98 s⁻¹ | 105 ± 18 µM | 512 µg/mL (≈ 989 µM) | 128 to 256 µg/mL (≈ 247 to 495 µM) | 512 µg/mL (≈ 989 µM) | 256 µg/mL (≈ 495 µM) | 8 to 16 µg/mL (≈ 15.5 to 30.9 µM) | 1 µg/mL (≈ 1.93 µM) | 16 to 32 µg/mL (≈ 30.9 to 61.8 µM) | 512 µg/mL (≈ 989 µM) | 4 µg/mL (≈ 7.73 µM) | 2 to 4 µg/mL (≈ 3.86 to 7.73 µM) | 2050 µg/mL (≈ 3960 µM) | 256 µg/mL (≈ 495 µM) | 
CC(=O)OCC1=C(C(=O)O)N2C(=O)[C@@H](NC(=O)Cc3cccs3)[C@H]2SC1 [cephalothin] | 8 to 16 µg/mL (≈ 20.2 to 40.4 µM) | 10 ± 1 s⁻¹ | 83 ± 11 µM | 16 µg/mL (≈ 40.4 µM) | 8 to 16 µg/mL (≈ 20.2 to 40.4 µM) | 16 µg/mL (≈ 40.4 µM) | 16 µg/mL (≈ 40.4 µM) | 4 to 8 µg/mL (≈ 10.1 to 20.2 µM) | 4 µg/mL (≈ 10.1 µM) | 4 to 8 µg/mL (≈ 10.1 to 20.2 µM) | 8 to 16 µg/mL (≈ 20.2 to 40.4 µM) | 4 µg/mL (≈ 10.1 µM) | 4 to 8 µg/mL (≈ 10.1 to 20.2 µM) | 64 to 128 µg/mL (≈ 161 to 323 µM) | 16 µg/mL (≈ 40.4 µM) | MIC, range over the variants at Asn276 ([19]; each of the variants at Asn276): 4 to 16 µg/mL
CC1(C)S[C@@H]2[C@H](NC(=O)[C@H](N)c3ccccc3)C(=O)N2[C@H]1C(=O)O [ampicillin] | 1020 to 2050 µg/mL (≈ 2930 to 5860 µM) | 989 ± 99 s⁻¹ | 134 ± 13 µM | 2050 µg/mL (≈ 5860 µM) | 1020 to 2050 µg/mL (≈ 2930 to 5860 µM) | 4100 µg/mL (≈ 11700 µM) | 1020 µg/mL (≈ 2930 µM) | 64 µg/mL (≈ 183 µM) | 1 µg/mL (≈ 2.86 µM) | 256 to 512 µg/mL (≈ 733 to 1470 µM) | 8190 µg/mL (≈ 23400 µM) | 32 µg/mL (≈ 91.6 µM) | 8 to 16 µg/mL (≈ 22.9 to 45.8 µM) | > 16400 µg/mL | 4100 µg/mL (≈ 11700 µM) | 
SHV-1 β-lactamase (Klebsiella pneumoniae) |  |  |  |  |  |  |  |  |  |  |  |  |  |  |  | Km [20]: 183 ± 34 µM; kcat [20]: 3100 ± 300 s⁻¹; kcat/Km [20]: 17 ± 4 µM⁻¹ s⁻¹; Km [21]: 29 ± 1 µM; kcat [21]: 14 ± 1 s⁻¹; kcat/Km [21]: 0.47 ± 0.03 µM⁻¹ s⁻¹; Km [22]: 77 ± 7 µM; kcat [22]: 898 ± 90 s⁻¹; kcat/Km [22]: 12 ± 1 µM⁻¹ s⁻¹; Km [23]: 21 ± 3 µM; kcat [23]: 237 ± 24 s⁻¹; kcat/Km [23]: 11 ± 2 µM⁻¹ s⁻¹
CO/N=C(\C(=O)N[C@@H]1C(=O)N2C(C(=O)O)=C(COC(C)=O)CS[C@H]12)c1csc(N)n1 [cefotaxime] |  |  |  |  |  |  |  |  |  |  |  |  |  |  |  | MIC of Asn276 variants compared to SHV-1 [19]: comparable to SHV-1
C[C@@H](O)[C@H]1C(=O)N2C(C(=O)O)=C(S[C@@H]3CN[C@H](C(=O)N(C)C)C3)[C@H](C)[C@H]12 [meropenem] |  |  |  |  |  |  |  |  |  |  |  |  |  |  |  | increase in Ki for Asn276Asp as compared to SHV-1 [1]: 46 fold; Ki ([1]; Ki, Asn276Asp, competition with NCF, corrected for NCF affinity): 1.411 ± 0.014 mM; MIC of Asn276 variants compared to SHV-1 [19]: comparable to SHV-1; Ki [24]: 31 ± 3 µM
O=C(Cc1cccs1)N[C@@H]1C(=O)N2C(C(=O)O)=C(/C=C/c3ccc([N+](=O)[O-])cc3[N+](=O)[O-])CS[C@H]12 [Nitrocefin, nitrocefin] |  | 137 ± 14 s⁻¹ | 28 ± 3 µM |  |  |  |  |  |  |  |  |  |  |  |  | 
